Results published in paper PMC9045296, “Development of Antifungal Peptides against Cryptococcus neoformans; Leveraging Knowledge about the cdc50Δ Mutant Susceptibility for Lead Compound Development” (Microbiology Spectrum, 2022).
≈ marks a conversion by molar mass, not a printed value. Residues, ends and D or L forms follow the SMILES beside them. *: point of attachment. Palmitoyl = CCCCCCCCCCCCCCCC(=O)*; Myristoyl = CCCCCCCCCCCCCC(=O)*; Decanoyl = CCCCCCCCCC(=O)*; Hexanoyl = CCCCCC(=O)*

Tests used:
Type in all cases: cell-based, Cryptococcus neoformans
[1] = test system: C. neoformans wild-type strain H99; test: microbe, parasite or virus in culture; conditions: for MIC H99: Table S1, drug alone, wild type H99; for MIC: drug alone, H99 wild type, CLSI broth microdilution, RPMI, 2.5*10^3 cells/mL, 37°C, read at 24 and 48 h
Method: (§1) Our assays followed standard CLSI protocol for broth microdilution assays using yeasts ([32]). Microbes were passaged in YPD media at 37°C with mixing for 2 days before harvesting with an inoculation loop to prepare monocultures on Sabouraud Dextrose Agar (SDA) plates. Monocultures on SDA plates were incubated for 2 days at 37°C before harvesting cells for microdilution assays. RPMI media (100 μL) was charged to each of the 96 wells in a 96-well plate, with an additional 100 μL in the first column. Peptide-DMSO solution (4 μL) at 12.8 mg/mL was charged to each of the wells in the first column. The 100 μL was serially diluted by a factor of 2 from the first column to the 11th column. Microbe inoculant was then prepared. An inoculation loop was used to transfer 1–3 colonies of cells to 1 mL phosphate buffer solution (PBS). The PBS and microbe solution was made uniform by vortex mixing. Cell concentration was computed by comparing the absorbance at 530 nm to 1x McFarland standard solution and multiplying the resulting ratio by 10^7 cell/mL conversion factor. Plate inoculant was prepared by diluting the PBS microbe solution to 5000 cell/mL, in RPMI media. A 100 μL aliquot of cells was transferred to each of the wells on the plate other than column 11 for the no growth control. The operating volume was 200 μL, with 500 CFU per well for a final concentration of 2.5*10^3 cells/mL. Inoculated plates were incubated for 48 h at 37°C and read at 24 and 48 h ([33]).

C. neoformans H99 = conditions: for FIC H99 Caspofungin: Table S1, concentration of caspofungin in combination with the peptide; for FIC H99 Peptide: Table S1, concentration of peptide in combination with caspofungin; for MIC of caspofungin in the presence of 0.5 μg/mL peptide: H99, checkerboard, caspofungin alone 16 μg/mL
Method: (§2) Again, 200 μL was the operating volume, 500CFU per well, 2.5*10^3 cell/mL. Plates were incubated for 48 h at 37°C and read thereafter. The Fractional Inhibitory Concentration Index were calculated in Equation 1: FICIndex=FICA/MICA+FICB/MICB

ΔCDC50 mutant strain = conditions: for FIC ΔCDC50 Caspofungin: Table S1, concentration of caspofungin in combination with the peptide; for FIC ΔCDC50 Peptide: Table S1, concentration of peptide in combination with caspofungin
Method: as §2

[2] = test system: exofacial PS on C. neoformans cells; test: AF350-annexin V flow cytometry assay; conditions: 0.128 mg/mL peptide, 5*10^6 cell/mL, 20 min at 25°C, triplicate; control 0.2 ± 0.1%
Text: We sought to determine whether the activities of the peptides were related to the lipid-flipping activity of the P4-ATPase. […] The intensity of the AF350-annexin V signal corresponds to concentration of PS on the exofacial side of the membrane. The propidium iodine signal corresponds to cell viability. […] Single cells were first selected and gated based on morphology to ensure homogeneity among the cell population (4A, 4B). We examined cells with low propidium iodine intensity (PI-A < 9 RU) and high AF350-annexin V intensity (Annexin V-A > 9 RU) (4C, 4D). Under these gating parameters there should be, respectively, low nonspecific cell death and high exofacial PS.
Stock microbes were defrosted from the –80°C freezer and were passed twice for 48 h each in YPD media. The YPD media was removed by spinning down and the supernatant was decanted. Pelletized cells were resuspended in 1 mL PBS media and washed for 5 min with incubation at 25°C and 250 RPM. Washed cells were spun down again and suspended in 1 mL of PBS solution. cells were diluted 20-fold into 1 mL fungal working solution in an eppendorf. Cell concentration was quantified via comparison to 1X McFarlain’s standard on a plate reader using the absorbance value at 530 nm. An aliquot of 1*10^6 cells in 100 μL was created (1*10^7cell/mL). A 100 μL aliquot of peptide working solution at 0.256 mg/mL was added to the cell suspension for final operating parameters of 200 μL, 0.128 mg/mL peptide, and 5*10^6cell/mL. The cells were incubated for 20 min at 25°C and 250RPM. Baseline and experimental samples were prepared in triplicate. Cells were stained using an operating concentration of 0.001 mg/mL Propidium Iodine (PI) and a 40-fold dilution of Alexa Fluor 350 labeled annexin V as per manufactures instructions. After staining the cells, samples were spun down and supernatant decanted. Cells were then fixed in 4% formaldehyde for 5 min. Fixed cells were spun down and supernatant decanted and resuspended in 400 μL 1% formaldehyde for flowcytometry. Samples were collected at a slow flow rate on a MACS Quant 10 device (Miltenyi Biotech, Auburn, CA) with 50,000 events collected per injection.

cdc50Δ mutant strain = conditions: Table S1, drug alone
Method: as §1

Row | Molecule | MIC H99 [1] [µg/mL] | FIC H99 Caspofungin (C. neoformans H99; H99) [µg/mL] | FIC H99 Peptide (C. neoformans H99; H99) [µg/mL] | FIC ΔCDC50 Caspofungin (ΔCDC50 mutant strain) [µg/mL] | FIC ΔCDC50 Peptide (ΔCDC50 mutant strain) [µg/mL] | other results
1 | H-SESGIAWGGIKKNYA-OH [AS15] | > 128 | 8 | 0.5 | 1 | 0.5 | –
2 | CCCCCCCCCCCCCC(=O)N[C@@H](CO)C(=O)NCC(=O)N[C@H](C(=O)N[C@@H](C)C(=O)N[C@@H](Cc1c[nH]c2ccccc12)C(=O)NCC(=O)NCC(=O)N[C@H](C(=O)N[C@@H](CCCCN)C(=O)O)[C@@H](C)CC)[C@@H](C)CC [KS9-Ma] (Myristoyl-SGIAWGGIK-OH) | > 128 | – | – | – | – | –
3 | CCCCCCCCCCCCCC(=O)N[C@@H](Cc1c[nH]c2ccccc12)C(=O)NCC(=O)NCC(=O)N[C@H](C(=O)N[C@@H](C)C(=O)N[C@@H](CCCCN)C(=O)N[C@@H](CC(N)=O)C(=O)N[C@@H](Cc1ccc(O)cc1)C(=O)N[C@@H](C)C(=O)O)[C@@H](C)CC [Peptide K5A-Ma] (Myristoyl-WGGIAKNYA-OH) | – | – | – | – | – | MIC [1]: >128 µg/mL; percentage of cells with low propidium iodine (PI-A < 9 RU) and high AF350-annexin V intensity (Annexin V-A > 9 RU) [2]: 5.6 ± 0.1%
4 | CCCCCCCCCCCCCC(=O)N[C@@H](Cc1c[nH]c2ccccc12)C(=O)NCC(=O)NCC(=O)N[C@H](C(=O)N[C@@H](C)C(=O)N[C@@H](C)C(=O)N[C@@H](CC(N)=O)C(=O)N[C@@H](Cc1ccc(O)cc1)C(=O)N[C@@H](C)C(=O)O)[C@@H](C)CC [K5A;K6A-Ma] (Myristoyl-WGGIAANYA-OH) | – | – | – | – | – | MIC [1]: >128 µg/mL; percentage of cells with low propidium iodine (PI-A < 9 RU) and high AF350-annexin V intensity (Annexin V-A > 9 RU) [2]: 1.3 ± 0.9%
5 | CCCCCCCCCCCCCC(=O)N[C@@H](CO)C(=O)N[C@@H](CCC(=O)O)C(=O)N[C@@H](CO)C(=O)NCC(=O)N[C@H](C(=O)N[C@@H](C)C(=O)N[C@@H](Cc1c[nH]c2ccccc12)C(=O)NCC(=O)NCC(=O)O)[C@@H](C)CC [GS9-Ma] (Myristoyl-SESGIAWGG-OH) | > 128 | – | – | – | – | MIC ΔCDC50 (cdc50Δ mutant strain): > 128 µg/mL
6 | CCCCCCCCCCCCCC(=O)N[C@@H](Cc1ccc(O)cc1)C(=O)N[C@H](C(=O)N[C@@H](CC(=O)O)C(=O)NCC(=O)N[C@@H](Cc1ccccc1)C(=O)N1CCC[C@H]1C(=O)N[C@@H](CC(N)=O)C(=O)N[C@@H](CC(C)C)C(=O)N[C@@H](CCCNC(=N)N)C(=O)N[C@@H](CCC(=O)O)C(=O)N[C@@H](CC(=O)O)C(=O)N[C@@H](CCC(=O)O)C(=O)N[C@@H](Cc1c[nH]cn1)C(=O)N[C@@H](Cc1ccccc1)C(=O)N[C@@H](CCC(N)=O)C(=O)O)C(C)C [QY15-Ma] (Myristoyl-YVDGFPNLREDEHFQ-OH) | > 128 | 8 | 0.5 | 1 | 0.5 | –
7 | H-YVDGFPNLREDEHFQ-OH [QY15] | > 128 | 8 | 0.5 | 1 | 0.5 | –
8 | CCCCCCCCCCCCCC(=O)N[C@@H](Cc1c[nH]c2ccccc12)C(=O)NCC(=O)NCC(=O)N[C@H](C(=O)N[C@@H](CCCCN)C(=O)N[C@@H](C)C(=O)N[C@@H](CC(N)=O)C(=O)N[C@@H](Cc1ccc(O)cc1)C(=O)N[C@@H](C)C(=O)O)[C@@H](C)CC [Peptide K6A-Ma] (Myristoyl-WGGIKANYA-OH) | – | – | – | – | – | MIC [1]: >128 µg/mL
9 | CCCCCCCCCCCCCCCC(=O)N[C@@H](CO)C(=O)N[C@@H](CCC(=O)O)C(=O)N[C@@H](CO)C(=O)NCC(=O)N[C@H](C(=O)N[C@@H](C)C(=O)N[C@@H](Cc1c[nH]c2ccccc12)C(=O)NCC(=O)NCC(=O)N[C@H](C(=O)N[C@@H](CCCCN)C(=O)N[C@@H](CCCCN)C(=O)N[C@@H](CC(N)=O)C(=O)N[C@@H](Cc1ccc(O)cc1)C(=O)N[C@@H](C)C(=O)O)[C@@H](C)CC)[C@@H](C)CC [AS15-Pa] (Palmitoyl-SESGIAWGGIKKNYA-OH) | > 128 | 8 | 0.5 | 2 | 2 | –
10 | CCCCCCCCCCCCCC(=O)N[C@@H](CO)C(=O)N[C@@H](CCC(=O)O)C(=O)N[C@@H](CO)C(=O)NCC(=O)N[C@H](C(=O)N[C@@H](C)C(=O)N[C@@H](Cc1c[nH]c2ccccc12)C(=O)NCC(=O)NCC(=O)N[C@H](C(=O)N[C@@H](CCCCN)C(=O)N[C@@H](CCCCN)C(=O)N[C@@H](CC(N)=O)C(=O)N[C@@H](Cc1ccc(O)cc1)C(=O)N[C@@H](C)C(=O)O)[C@@H](C)CC)[C@@H](C)CC [AS15-Ma] (Myristoyl-SESGIAWGGIKKNYA-OH) | > 128 | 8 | 0.5 | 0.25 | 0.25 | MIC ΔCDC50 (cdc50Δ mutant strain): 8 µg/mL (≈ 4.47 µM); MIC of caspofungin in the presence of 0.5 μg/mL peptide (C. neoformans H99): 8 µg/mL; percentage of cells with low propidium iodine (PI-A < 9 RU) and high AF350-annexin V intensity (Annexin V-A > 9 RU) [2]: 12.1 ± 2.0%
11 | CCCCCCCCCCCCCCCC(=O)N[C@@H](Cc1c[nH]c2ccccc12)C(=O)NCC(=O)NCC(=O)N[C@H](C(=O)N[C@@H](CCCCN)C(=O)N[C@@H](CCCCN)C(=O)N[C@@H](CC(N)=O)C(=O)N[C@@H](Cc1ccc(O)cc1)C(=O)N[C@@H](C)C(=O)O)[C@@H](C)CC [AW9-Pa] (Palmitoyl-WGGIKKNYA-OH) | > 128 | 8 | 0.5 | 2 | 1 | MIC ΔCDC50 (cdc50Δ mutant strain): 8 µg/mL (≈ 6.28 µM); MIC of caspofungin in the presence of 0.5 μg/mL peptide (C. neoformans H99): 8 µg/mL; FIC Index H99 (C. neoformans H99; Table S1, caspofungin + peptide, H99): 0.5-1; FIC Index ΔCDC50 (ΔCDC50 mutant strain; Table S1, caspofungin + peptide): 0.75
12 | CCCCCCCCCC(=O)N[C@@H](CO)C(=O)N[C@@H](CCC(=O)O)C(=O)N[C@@H](CO)C(=O)NCC(=O)N[C@H](C(=O)N[C@@H](C)C(=O)N[C@@H](Cc1c[nH]c2ccccc12)C(=O)NCC(=O)NCC(=O)N[C@H](C(=O)N[C@@H](CCCCN)C(=O)N[C@@H](CCCCN)C(=O)N[C@@H](CC(N)=O)C(=O)N[C@@H](Cc1ccc(O)cc1)C(=O)N[C@@H](C)C(=O)O)[C@@H](C)CC)[C@@H](C)CC [AS15-Da] (Decanoyl-SESGIAWGGIKKNYA-OH) | > 128 | – | – | – | – | –
13 | CCCCCC(=O)N[C@@H](CO)C(=O)N[C@@H](CCC(=O)O)C(=O)N[C@@H](CO)C(=O)NCC(=O)N[C@H](C(=O)N[C@@H](C)C(=O)N[C@@H](Cc1c[nH]c2ccccc12)C(=O)NCC(=O)NCC(=O)N[C@H](C(=O)N[C@@H](CCCCN)C(=O)N[C@@H](CCCCN)C(=O)N[C@@H](CC(N)=O)C(=O)N[C@@H](Cc1ccc(O)cc1)C(=O)N[C@@H](C)C(=O)O)[C@@H](C)CC)[C@@H](C)CC [AS15-Ha] (Hexanoyl-SESGIAWGGIKKNYA-OH) | > 128 | – | – | – | – | –
